The experiment concerns the target T1, ∞vβ3 (Homo sapiens, UniProt P05106+P06756).
T1 construct: performed on HUVEC cells overexpressing ∞vβ3; endogenous in cells; host or cells: HUVEC
The experiment in a line: IC50 by competition with echistatin 125I on HUVEC cells. The format is binding. As to conditions: competition with echistatin-125I-SIB, read-out: IC50 (nM of targeting ligand).

Take `CCCCCCCCCCCCCCCCCC(=O)OCC(COP(=O)(O)OCCNC(=O)OCCOCCOCCOCCOCCOCCOCCOCCOCCOCCOCCOCCOCCOCCOCCOCCOCCOCCOCCOCCOCCOCCOCCOCCOCCOCCOCCOCCOCCOCCOCCOCCOCCOCCOCCOCCOCCOCCOCCOCCOCCOCCOCCOCCOCCNc1c(NCCNC(=O)CCCOc2cc(C)c(S(=O)(=O)CNC(NC(=O)CCCCc3ccc4c(n3)NCCC4)C(=O)O)c(C)c2)c(=O)c1=O)OC(=O)CCCCCCCCCCCCCCCCC` (stereo not shown) [Example 6]: the IC50 came out at 0.4 nM.
